Numbers after ± are expanded uncertainties.
Conditions: Liquid; for speed of sound: Pulse-echo method; for mass density: Vibrating tube method

CCCCCCCCCCCCCC(=O)OCC [ethyl tetradecanoate]
Conditions | mass density, 343.15 K [kg/m3] | mass density, 353.15 K [kg/m3] | mass density, 363.15 K [kg/m3] | mass density, 373.15 K [kg/m3] | mass density, 383.15 K [kg/m3] | mass density, 393.15 K [kg/m3] | speed of sound, 343.15 K [m/s] | speed of sound, 363.15 K [m/s] | speed of sound, 383.15 K [m/s] | speed of sound, 403.15 K [m/s]
100 kPa | – | – | – | – | – | – | – | 1120 ± 4.7 | 1056.9 ± 4.4 | 996.1 ± 4.2
101.3 kPa | – | 815.6 ± 1 | 808.4 ± 1 | 800.1 ± 1 | 792.1 ± 1 | 784.5 ± 1 | – | – | – | –
10000 kPa | – | 823.9 ± 1 | 816.6 ± 1 | 809.9 ± 1.1 | 802.1 ± 1.1 | 794.6 ± 1.1 | – | 1181.8 ± 4.9 | 1122.3 ± 4.7 | 1067.2 ± 4.5
20000 kPa | – | 831.8 ± 1.1 | 824.6 ± 1.1 | 817.9 ± 1.1 | 810.7 ± 1.1 | 803.7 ± 1.1 | – | 1236.4 ± 5.1 | 1181.7 ± 4.9 | 1130.3 ± 4.7
30000 kPa | – | 838.7 ± 1.1 | 831.8 ± 1.1 | 825.5 ± 1.1 | 818.5 ± 1.1 | 812 ± 1.1 | – | 1287.1 ± 5.3 | 1235.6 ± 5.1 | 1186.1 ± 4.9
40000 kPa | – | 845 ± 1.1 | 838.6 ± 1.1 | 832.4 ± 1.1 | 825.9 ± 1.1 | 819.5 ± 1.1 | – | 1334.2 ± 5.5 | 1284.7 ± 5.3 | 1237.3 ± 5.1
50000 kPa | – | 850.8 ± 1.1 | 845 ± 1.1 | 838.8 ± 1.1 | 832.5 ± 1.1 | 826.4 ± 1.1 | – | 1377.5 ± 5.7 | 1330.3 ± 5.5 | 1284.9 ± 5.3
60000 kPa | – | 856.4 ± 1.1 | 850.6 ± 1.1 | 844.9 ± 1.1 | 838.9 ± 1.2 | 832.9 ± 1.2 | – | 1418.8 ± 5.8 | 1372.3 ± 5.6 | 1327.9 ± 5.5
70000 kPa | – | 861.8 ± 1.2 | 856.1 ± 1.2 | 850.6 ± 1.2 | 845 ± 1.2 | 839.8 ± 1.2 | – | 1457.6 ± 6 | 1412.6 ± 5.8 | 1370 ± 5.6
80000 kPa | – | 866.9 ± 1.2 | 861.3 ± 1.2 | 856.2 ± 1.2 | 850.5 ± 1.2 | 845.6 ± 1.2 | – | 1495.5 ± 6.1 | 1450.4 ± 5.9 | 1409.7 ± 5.8
90000 kPa | 877.5 ± 1.2 | 871.8 ± 1.2 | 866.3 ± 1.2 | 861.3 ± 1.2 | 855.9 ± 1.2 | 851 ± 1.2 | 1576.2 ± 6.4 | 1531 ± 6.3 | 1486.9 ± 6.1 | 1447.5 ± 5.9
100000 kPa | 882.1 ± 1.2 | 876.4 ± 1.2 | 871.1 ± 1.2 | 866.1 ± 1.2 | 861 ± 1.2 | 855.6 ± 1.2 | 1609.1 ± 6.6 | 1564.6 ± 6.4 | 1521.7 ± 6.2 | 1483.2 ± 6.1
